Data published in patent publication US6706839B1, “Chemical partitioning agents and methods of using same” (University of Pittsburgh, priority 1999, dated 2004).

Experiment: Solubility of stilbene precipiton isomers in organic solvents (qualitative observations)
Assay type: physicochemical
Settings: for solubility in THF: reaction solvent of the Z to E isomerization
Experimental: When a solution of (Z)-stilbene (51Z or 52Z) in THF was heated to reflux at 80-90° C. in the presence of Ph2S2 (0.2 equiv) for several hours, the Z to E isomerization occurred smoothly. The reaction was followed by ^1H NMR (either vinylic protons or NMe2 (51Z), OMe (52Z)). As the reaction proceeded, solid precipitate came out of the solution. […] The E-isomer was obtained pure in a 44% (51E) and 79% (52E) yield, respectively without any contamination of either Z-isomer or Ph2S2. […] In high-boiling solvents such as toluene and p-dioxane, the isomerization was faster than in THF and the reaction was completed in less than 3 h (Table 32). A second catalytic method for isomerization/precipitation employs iodine and a radical initiator, for example dibenzoylperoxide. Irradiation of the cis-alkenes in the presence of 1-50 mol % iodine and 0.1-25 mol % dibenzoylperoxide affords clean isomerization of the cis to trans alkene.
(2-Naphthalenylmethyl)triphenylphosphonium bromide ((a) Tinnemans, A. H. A.; Laarhoven, W. H. J. Chem. Soc. Perkin. Trans. 2, 1976, 1104-1111. (b) Zelikovich, L.; Hoffman, R. E.; Ayalon, A.; Rabinovitz, M. J. Chem. Soc. Perkin. Trans. 2, 1992, 1785-1792) was treated with NaH in DMF to generate a corresponding ylide. A solution of 4-methoxy-1-naphthaldehyde in DMF was added and stirred at 35-50° C. for 2 h at to give 1,2-naphthylstilbene 53 in 51% yield (53Z:53E=1:1.2). 6-Methoxy-2-naphthaldehyde ((a) Harvey, R. G.; Cortez, C.; Sawyer, T. W.; DiGiovanni, J.; J. Med. Chem. 1988, 31, 1308-1312. (b) Harvey, R. G.; Cortez, C. Tetrahedron, 1997, 53, 7101-7118) was prepared by formylation (Beringer, F. M.; Nathan, R. A. J. Org. Chem. 1969, 34, 685-689) of 6-methoxy-2-bromonaphthalene in 53% yield. When (2-naphthalenylmethyl)-triphenylphosphonium bromide was reacted with 6-methoxy-2-naphthaldehyde in a similar manner as 1,2-naphthylstilbene, (Z)-2,2-naphthylstilbene 54Z was prepared in 39% isolated yield. […]

COc1ccc(/C=C/c2ccc(-c3ccccc3)cc2)cc1 [52E]
solubility in THF: partially soluble

CN(C)c1ccc(/C=C/c2ccc(Br)cc2)cc1 [51E]
solubility in Et2O, compared with 52E (Et2O, trituration solvent, relative to 52E): bigger solubility | solubility in THF: partially soluble
